Assay results from patent US20120095022A1, “DERIVATIVES OF 10-AMINO-1,2,3,4-TETRAHYDROPYRIDO[2,1-A]ISOINDOL-6(10BH)-ONES, METHOD FOR PREPARATION THEREOF AND THERAPEUTIC USES THEREOF” (UNIVERSITE D'ORLEANS, priority 2009, published 2012).

Legend:
GSK-3αβ = assay: GSK-3 kinase inhibition (GS-1 substrate); conditions: read-out: IC50 μM Kinases GSK3, buffer A, 30° C., 15 μM ATP
CDK5/D25 = target: T1, CDK5/D25 (Homo sapiens, UniProt Q00535); assay: CDK5 kinase inhibition (33P-ATP, histone H1); format: biochemical; conditions: buffer C, 30° C., 15 μM ATP, read-out: IC50 μM Kinases CDK5
T1 construct: made in house
T1 sequence (Q00535 whole entry): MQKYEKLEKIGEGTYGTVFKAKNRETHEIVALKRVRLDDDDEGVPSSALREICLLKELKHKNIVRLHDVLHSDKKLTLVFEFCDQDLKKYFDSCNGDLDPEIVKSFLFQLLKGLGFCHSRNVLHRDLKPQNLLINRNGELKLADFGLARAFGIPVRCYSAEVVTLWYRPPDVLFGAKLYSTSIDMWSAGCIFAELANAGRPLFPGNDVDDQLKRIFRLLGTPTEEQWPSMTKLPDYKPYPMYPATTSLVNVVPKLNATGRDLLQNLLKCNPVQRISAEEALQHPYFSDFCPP
T1 sequence (Q15078 99-307 partner limits assumed): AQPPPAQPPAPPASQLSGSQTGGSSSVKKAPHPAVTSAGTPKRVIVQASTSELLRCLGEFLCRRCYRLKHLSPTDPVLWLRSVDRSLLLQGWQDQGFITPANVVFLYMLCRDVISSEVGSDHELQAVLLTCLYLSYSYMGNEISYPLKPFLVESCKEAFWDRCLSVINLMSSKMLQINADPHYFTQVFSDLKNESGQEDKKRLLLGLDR
Method: The protein kinase inhibition activities of the compounds of the invention are tested according to the following general procedure:
Buffer C: 60 mM β-glycerophosphate, 15 mM p-nitrophenyl-phosphate, 25 mM Mops (pH 7.2), 5 mM EGTA, 15 mM mgCl2, 1 mM DTT, 1 mM sodium vanadate and 1 mM phenylphosphate.
The controls were made with suitable dilutions of DMSO.
ATP (3.000 Ci/mmol.; 10 mCi/mL) in a final volume of 30 μL. After 30 mins of incubation at 30° C., 25 μL of supernatant aliquots were deposited on phosphocellulose Whatman P81 paper pieces of 2.5×3 cm, and after 20 seconds, the filters were washed five times (for at least 5 minutes each time) in a solution of 10 mL of phosphoric acid/1 litre of water. The wet filters were counted in the presence of 1 mL of scintillation fluid ACS (Amersham).

NCI (lung) = assay: Cytotoxicity on human cells, automated nuclei counting: NCI; format: cell-based; conditions: exposed 24 h to 48 h, 0.1 to 25 μM
Method: (§1) Cytotoxicity: This method is based on an automated imaging analysis. 4.10^3 cells were cultivated on 96-well plates and left for 24 hours so as to bind, to spread and proliferate.
(§2) All the cell lines were cultivated in a DMEM or RPMI (Invitrogen) medium. All these media were completed with antibiotics (penicillin-streptomycin) (Lonza) and 10% by volume of fetal calf serum (Invitrogen). The cells were cultivated at 37° C. with 5% of CO2. The treatments with the molecules to be tested were carried out with increasing concentrations. The control experiments were also carried out by using suitable dilutions of DMSO (maximum 1% DMSO).

Caco (colon) = assay: Cytotoxicity on human cells, automated nuclei counting: Caco; format: cell-based; conditions: exposed 24 h to 48 h, 0.1 to 25 μM
Method: as §1, §2

DYRK1A = DYRK1A (Homo sapiens, UniProt Q13627); assay: DYRK1A kinase inhibition (Woodtide substrate)
HCT 116 (colon) = assay: Cytotoxicity on human cells, automated nuclei counting: HCT 116; format: cell-based; conditions: HCT 116 cells, exposed 24 h to 48 h, 0.1 to 25 μM
Method: as §1, §2

fibroblast = assay: Cytotoxicity on human cells, automated nuclei counting: fibroblast; format: cell-based; conditions: exposed 24 h to 48 h, 0.1 to 25 μM
Method: as §1, §2

PC3 (prostate) = assay: Cytotoxicity on human cells, automated nuclei counting: PC3; format: cell-based; conditions: PC-3, exposed 24 h to 48 h, 0.1 to 25 μM
Method: as §1, §2

Huh7 (liver) = assay: Cytotoxicity on human cells, automated nuclei counting: Huh7; format: cell-based; conditions: Huh-7, exposed 24 h to 48 h, 0.1 to 25 μM
Method: as §1, §2

MDA-MB 231 (breast) = assay: Cytotoxicity on human cells, automated nuclei counting: MDA-MB 231; format: cell-based; conditions: MDA-MB 231 cells, exposed 24 h to 48 h, 0.1 to 25 μM
Method: as §1, §2

Row | Structure (SMILES) | IC50 (GSK-3αβ) | IC50 (CDK5/D25) | IC50 (NCI (lung)) | IC50 (Caco (colon)) | IC50 (DYRK1A) | IC50 (HCT 116 (colon)) | IC50 (fibroblast) | IC50 (PC3 (prostate)) | melting point | IC50 (Huh7 (liver)) | IC50 (MDA-MB 231 (breast))
1 | O=C(Nc1ccc(Br)cn1)Nc1cccc2c1C1CCCCN1C2=O (stereo not shown) [Compound 18, 1-(5-Bromopyridin-2-yl)-3-(6-oxo-1,2,3,4,6,10b-hexahydropyrido[2,1-a]isoindol-10-yl)urea] | 0.076 µM | 0.13 µM | > 25 µM | > 25 µM | 21 µM | > 25 µM | > 25 µM | > 25 µM | 225 °C | > 25 µM | > 25 µM
2 | O=C(Nc1cccc(Br)n1)Nc1cccc2c1C1CCCCN1C2=O (stereo not shown) [Compound 19, 1-(6-Bromopyridin-2-yl)-3-(6-oxo-1,2,3,4,6,10b-hexahydropyrido[2,1-a]isoindol-10-yl)urea] | 0.043 µM | 0.04 µM | > 25 µM | > 25 µM | 3.4 µM | > 25 µM | > 25 µM | > 25 µM | 218 to 220 °C | > 25 µM | > 25 µM
3 | O=C(Nc1ccncn1)Nc1cccc2c1C1CCCCN1C2=O (stereo not shown) [Compound 32, 1-(6-Oxo-1,2,3,4,6,10b-hexahydropyrido[2,1-a]isoindol-10-yl)-3-(pyrimidin-4-yl)urea] | 0.36 µM | 1.5 µM | – | – | 71 µM | – | – | – | 218 °C | – | –
4 | O=C(Nc1cccc2c1C1CCCCN1C2=O)Nc1nc(Cl)c(Cl)c(Cl)c1Cl (stereo not shown) [Compound 33, 1-(6-oxo-1,2,3,4,6,10b-hexahydropyrido[2,1-a]isoindol-10-yl)-3-(perchloro-pyridin-2-yl)urea] | 4.3 µM | – | 0.8 µM | 1.5 µM | > 100 µM | 0.5 µM | 0.5 µM | 1 µM | 246 °C | 0.25 µM | 0.5 µM
5 | Cn1ccc(NC(=O)Nc2cccc3c2C2CC4(CCN2C3=O)SCCS4)n1 (stereo not shown) [Compound 40, 1-(6′-Oxo-3′,4′,6′,10b′-tetrahydro-1′H-spiro[[1,3]dithiolane-2,2′-pyrido[2,1-a]isoindole]-10′-yl)-3-(1-Methyl-1H-pyrazol-3-yl)urea] | 1.9 µM | ≥ 10 µM | – | – | > 10 µM | – | – | – | 135 °C | – | –
6 | Cn1ccc(NC(=O)Nc2cccc3c2C2CCCCN2C3=O)n1 (stereo not shown) [Compound 41, 1-(1-Methyl-1H-pyrazol-3-yl)-3-(6-oxo-1,2,3,4,6,10b-hexahydro-pyrido[2,1-a]isoindol-10-yl)-urea] | 0.31 µM | 0.51 µM | – | – | > 10 µM | – | – | – | 233 °C | – | –
7 | COc1cc(NC(=O)Nc2cccc3c2C2CC4(CCN2C3=O)SCCS4)nc2ccccc12 (stereo not shown) [Compound 49] | 4 µM | > 10 µM | 10 µM | 15 µM | > 10 µM | 10 µM | 25 µM | 15 µM | – | 5 µM | 20 µM
8 | COC1CCN2C(=O)c3cccc(NC(=O)Nc4ccccn4)c3C2C1 (stereo not shown) [Compound 53, 1-(2-Methoxy-6-oxo-1,2,3,4,6,10b-hexahydropyrido[2,1-a]isoindol-10-yl)-3-(pyridin-2-yl)urea] | 0.081 µM | 0.55 µM | 4 µM | 2.5 µM | > 10 µM | 1 µM | 3 µM | 2 µM | – | 0.7 µM | 2 µM
9 | COC1CCN2C(=O)c3cccc(NC(=O)Nc4cccc(C)n4)c3C2C1 (stereo not shown) [Compound 56, 1-(2-Methoxy-6-oxo-1,2,3,4,6,10b-hexahydropyrido[2,1-a]isoindol-10-yl)-3-(6-methylpyri-din-2-yl)urea] | 0.32 µM | 4.3 µM | 10 µM | 6 µM | > 10 µM | 3 µM | 7 µM | 6 µM | – | 3 µM | 7 µM
10 | COC1CCN2C(=O)c3cccc(NC(=O)Nc4ncccc4C)c3C2C1 (stereo not shown) [Compound 57, 1-(2-Methoxy-6-oxo-1,2,3,4,6,10b-hexahydropyrido[2,1-a]isoindol-10-yl)-3-(3-methylpyridin-2-yl)urea] | – | 1.1 µM | 4 µM | 2 µM | > 10 µM | 1 µM | 3 µM | 1.2 µM | – | 1.2 µM | 2.2 µM
11 | COC1CCN2C(=O)c3cccc(NC(=O)Nc4cc(C)ccn4)c3C2C1 (stereo not shown) [Compound 58, 1-(2-methoxy-6-oxo-1,2,3,4,6,10b-hexahydropyrido[2,1-a]isoindol-10-yl)-3-(4-methylpyridin-2-yl)urea] | 0.032 µM | 0.32 µM | 0.4 µM | 0.5 µM | > 10 µM | 0.03 µM | 0.5 µM | 0.4 µM | – | 0.1 µM | 0.3 µM
12 | COC1CCN2C(=O)c3cccc(NC(=O)Nc4ccn(C)n4)c3C2C1 (stereo not shown) [Compound 60, 1-(2-methoxy-6-oxo-1,2,3,4,6,10b-hexahydropyrido[2,1-a]isoindol-10-yl)-3-(1-methyl-1H-pyrazol-3-yl)urea] | – | 2.3 µM | 2 µM | 15 µM | > 10 µM | 4 µM | 15 µM | 7 µM | – | 2 µM | 10 µM
13 | O=C1c2cccc(NC(=S)Nc3ccccn3)c2C2CCCCN12 (stereo not shown) [Compound 62, 1-(6-Oxo-1,2,3,4,6,10b-hexahydropyrido[2,1-a]isoindol-10-yl)-3-(pyridin-2-yl)thiourea] | 2.3 µM | – | > 25 µM | 20 µM | 47 µM | 8 µM | > 25 µM | 20 µM | 195 °C | > 25 µM | 25 µM
14 | O=C1c2cccc(NC(=S)Nc3ccc(Br)cn3)c2C2CCCCN12 (stereo not shown) [Compound 66, 1-(5-Bromopyridin-2-yl)-3-(6-oxo-1,2,3,4,6,10b-hexahydropyrido[2,1-a]isoindol-10-yl)thiourea] | 2.1 µM | 8.7 µM | 25 µM | 2 µM | > 100 µM | 3 µM | 4 µM | > 25 µM | – | > 25 µM | 2 µM
15 | O=C1CCN2C(=O)c3cccc(NC(=O)Nc4cc(O)c5ccccc5n4)c3C2C1 (stereo not shown) [Compound 103, 1-(2,6-Dioxo-1,2,3,4,6,10b-hexahydropyrido[2,1-a]isoindol-10-yl)-3-(4-hydroxyquinolin-2-yl)urea] | 1.3 µM | > 10 µM | – | – | ≥ 10 µM | – | – | – | > 260 °C | – | –
16 | O=C(Nc1cc(O)c2ccccc2n1)Nc1cccc2c1C1CC(O)CCN1C2=O (stereo not shown) [Compound 110, 1-(2-Hydroxy-6-oxo-1,2,3,4,6,10b-hexahydropyrido[2,1-a]isoindol-10-yl)-3-(4-hydroxyquinolin-2-yl)urea] | 2.5 µM | > 10 µM | – | – | ≥ 10 µM | – | – | – | > 260 °C | – | –
17 | CC(C)(C)OC(=O)n1ccc(NC(=O)Nc2cccc3c2C2CCCCN2C3=O)n1 (stereo not shown) [Compound 118] | 0.4 µM | – | – | – | > 10 µM | – | – | – | 136 °C | – | –
18 | O=C(Nc1cc[nH]n1)Nc1cccc2c1C1CCCCN1C2=O (stereo not shown) [Compound 119, 1-(6-Oxo-1,2,3,4,6,10b-hexahydro-pyrido[2,1-a]isoindol-10-yl)-3-(1H-pyrazol-3-yl)-urea] | 0.47 µM | – | – | – | > 10 µM | – | – | – | 185 °C | – | –
